The source of these data is patent US4524075A, “Pharmaceutical formulations containing pseudomonic acid” (Beecham Group p.l.c., priority 1982, dated 1985).

Series [1] is described as follows: Stability in the presence of acid or of polyethylene glycol (general statements, no test described). In kind it is physicochemical.
For series [2] the following is noted: cited from earlier work.
The nature of series [3]: Stability test: storage at 30° or 37° C. for 12 months, amount of therapeutic agent remaining assayed at 2 and 12 months. In kind it is physicochemical.

As for `C/C(=C\C(=O)OCCCCCCCCC(=O)O)C[C@@H]1OC[C@H](C[C@@H]2O[C@H]2[C@@H](C)[C@H](C)O)[C@@H](O)[C@H]1O` [Pseudomonic acid], the “stability in the presence of polyethylene glycol, or a derivative thereof” value in series [1] was “improved stability”. Further, the “stability in the presence of acid” value in series [2] is listed as “tend to undergo a rearrangement reaction in the presence of acid”. Besides, in series [3], the “% remaining after 2 months at 37° C.” value is “Dec”, the “% remaining after 12 months at 30° C.” value is “Dec” and the “% remaining after 12 months at 37° C.” value is on record as “Dec”. Also, the “% remaining after 2 months at 30° C.” value in series [3] (storage, 1460 h) is 78%.
